Laboratory results: patent publication US8163909B2, “Substituted hydroxyethyl amine compounds as beta-secretase modulators and methods of use” (Amgen Inc., priority 2007, dated 2012)
Like-named read-outs stand apart in the source and are kept apart here.

Tests used:
[1] = tested on: Aβ40 in conditioned medium of cells stably expressing Amyloid Precursor Protein (APP); experiment: In vitro BACE cell-based assay (Aβ40 in conditioned medium, sandwich ELISA); details: cell-based assay, read-out: HEK cell assay (IC50);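 also: compounds added as a dilution series, secreted peptide quantified by europium time-resolved fluorescence readout, potency fitted from percent of control versus compound concentration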
[2] = target: Beta Secretase enzyme (BACE) (Homo sapiens, UniProt P56817); experiment: In vitro enzymatic BACE FRET (fluorescence resonance energy transfer) assay; assay type: biochemical; details: BACE enzyme assay; read-out: BACE1 FRET assay (IC50);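 also: fluorescence read after 1 h with 50 nM quenched peptide substrate spanning the BACE cleavage site, in pH 4.2 acetate buffer containing 10% DMSO and nonionic detergent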
Beta Secretase enzyme (BACE), sequence (P56817 46-501): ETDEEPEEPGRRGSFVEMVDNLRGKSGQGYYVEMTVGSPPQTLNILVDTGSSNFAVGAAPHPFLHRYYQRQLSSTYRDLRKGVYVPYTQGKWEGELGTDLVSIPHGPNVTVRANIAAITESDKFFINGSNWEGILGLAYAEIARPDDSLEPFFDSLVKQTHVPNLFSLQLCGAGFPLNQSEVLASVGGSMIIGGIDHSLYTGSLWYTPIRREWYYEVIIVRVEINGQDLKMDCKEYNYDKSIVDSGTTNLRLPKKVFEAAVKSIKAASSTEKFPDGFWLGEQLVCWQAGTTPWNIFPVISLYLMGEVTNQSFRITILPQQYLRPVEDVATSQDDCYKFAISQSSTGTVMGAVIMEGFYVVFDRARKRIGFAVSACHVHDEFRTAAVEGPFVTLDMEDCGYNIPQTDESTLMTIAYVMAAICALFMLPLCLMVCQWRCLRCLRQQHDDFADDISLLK

[3] = Homo sapiens, HEK293, HEK cells

Structure (SMILES) | IC50 [1, 3] [nM] | IC50 [2] [nM] | IC50 ([1]; HEK cells) [nM]
COCC(=O)N[C@@H](Cc1ccc(F)c(OC(F)(F)F)c1)[C@H](O)CN[C@H]1CC2(CCC2)Oc2ncc(CC(C)(C)C)cc21 [compound 81] | 14 | 2.51 | –
CC(C)(C)Cc1cnc2c(c1)[C@@H](NC[C@@H](O)[C@H](Cc1ccc(F)c(OC(F)(F)F)c1)NC(=O)C(F)(F)F)CC1(CCC1)O2 [compound 82] | 523 | 2.83 | –
CC(=O)Nc1cnc2c(c1)[C@@H](NC[C@@H](O)[C@H](Cc1ccc(F)cc1)NC(C)=O)CC1(CCC1)O2 [compound 83, N-((1S,2R)-3-(((4′S)-6′-(acetylamino)-3′,4′-dihydrospiro[cyclobutane-1,2′-pyrano[2,3-b]pyridin]-4′-yl)amino)-1-((4-fluorophenyl)methyl)-2-hydroxypropyl)acetamide] | > 10000 | 593 | –
CC(=O)N[C@@H](Cc1ccc(F)cc1)[C@H](O)CN[C@H]1CC2(CCC2)Oc2ncc(NC(=O)C(C)(C)C)cc21 [compound 84] | > 10000 | 4870 | –
CCC(=O)Nc1cnc2c(c1)[C@@H](NC[C@@H](O)[C@H](Cc1ccc(F)cc1)NC(C)=O)CC1(CCC1)O2 [compound 85] | > 10000 | 890 | –
CC(=O)N[C@@H](Cc1ccc(F)cc1)[C@H](O)CN[C@H]1CC2(CCC2)Oc2ncc(NC(=O)C(C)C)cc21 [compound 86] | 9730 | 7470 | –
COCC(=O)N[C@@H](Cc1cc(F)cc(F)c1)[C@H](O)CN[C@H]1CC2(CCCC2)C(=O)c2ccc(CC(C)(C)C)cc21 [compound 89] | 58.6 | 4.95 | –
CC(=O)N[C@@H](Cc1cc(F)cc(F)c1)[C@H](O)CN[C@H]1CC2(CCC2)Oc2ncc(CC(C)(C)C#N)cc21 [compound 91] | 6.46 | 4.42 | –
COCC(=O)N[C@@H](Cc1cc(F)cc(F)c1)[C@H](O)CN[C@H]1CC2(CCC2)Oc2ncc(CC(C)(C)C#N)cc21 [compound 92] | 6.21 | 3.25 | –
CC(C)(C)Cc1cnc2c(c1)[C@@H](NC[C@@H](O)[C@H](Cc1cc(F)cc(F)c1)NC(=O)COCc1cncs1)CC1(CCC1)O2 [compound 94] | 17.1 | 3 | –
CC(C)(C)Cc1cnc2c(c1)[C@@H](NC[C@@H](O)[C@H](Cc1cc(F)cc(F)c1)NC(=O)C(C)(Cl)Cl)CC1(CCC1)O2 [compound 97] | 385 | 13.8 | –
CC(C)(C)Cc1cnc2c(c1)[C@@H](NC[C@@H](O)[C@H](Cc1ccc3c(c1)OCO3)NC(=O)C(C)(Cl)Cl)CC1(CCC1)O2 [compound 98] | – | 540 | 767
CC(C)(C)Cc1cnc2c(c1)[C@@H](NC[C@@H](O)[C@H](Cc1ccc3c(c1)OCO3)NC(=O)C(F)(F)Cl)CC1(CCC1)O2 [compound 99] | 317 | 59.3 | –
CC(C)(C)Cc1cnc2c(c1)[C@@H](NC[C@@H](O)[C@H](Cc1ccc3c(c1)OCO3)NC(=O)C(Cl)Cl)CC1(CCC1)O2 [compound 100] | – | 12.7 | 71.4
CC(C)(C)Cc1cnc2c(c1)[C@@H](NC[C@@H](O)[C@H](Cc1ccc3c(c1)OCO3)NC(=O)OCc1cncs1)CC1(CCC1)O2 [compound 101] | – | 159 | 1850
COC(C)C(=O)NC(Cc1cc(F)cc(F)c1)C(O)CNC1CC2(CCC2)Oc2ncc(CC(C)(C)C)cc21 [compound 103, (S)—N-((2S,3R)-1-(3,5-difluorophenyl)-3-hydroxy-4-((S)-6-neopentyl-3,4-dihydrospiro[cyclobutane-1,2H-pyrano[2,3-b]pyridin-4-ylamino)butan-2-yl)-2-methoxypropanamide] | – | 10.1 | 26.8
CC(C)(C)Cc1cnc2c(c1)[C@@H](NC[C@@H](O)[C@H](Cc1cccc(F)c1)NC(=O)C(F)(F)Cl)CC1(CCC1)O2 [compound 108] | 90.6 | 5.06 | –
CNc1nc(CC(C)(C)C)cc2c1OC1(CCC1)C[C@@H]2NC[C@@H](O)[C@H](Cc1ccccc1)NC(=O)COC [compound 112] | 8.93 | 30.4 | –
CC(=O)N[C@@H](Cc1ccc(F)cc1)[C@H](O)CN[C@H]1C[C@@]2(CC[C@@H]2O)Oc2ncc(CC(C)(C)C)cc21 [compound 114] | 909 | 1580 | –
CC(=O)N[C@@H](Cc1ccc(F)cc1)[C@H](O)CN[C@@H]1C[C@]2(CC[C@H]2O)Oc2ncc(CC(C)(C)C)cc21 [compound 115] | 5500 | 6880 | –
CC(=O)N[C@@H](Cc1ccc(F)cc1)[C@H](O)CN[C@H]1C[C@@]2(CC[C@H]2O)Oc2ncc(CC(C)(C)C)cc21 [compound 116] | 148 | 117 | –
CC(=O)N[C@@H](Cc1ccc(F)cc1)[C@H](O)CN[C@H]1C[C@]2(CC[C@@H]2O)Oc2ncc(CC(C)(C)C)cc21 [compound 117] | 33.6 | 7.85 | –
COCC(=O)N[C@@H](Cc1ccc2c(c1)OCO2)[C@H](O)CN[C@H]1CC2(CCC2)Oc2cnc(CC(C)(C)C)cc21 [compound 119] | 127 | 203 | –
C=CC[C@H](NC(=O)COC)[C@H](O)CN[C@H]1CC2(CCC2)Oc2cnc(CC(C)(C)C)cc21 [compound 120] | 343 | 745 | –
COCC(=O)N[C@@H](Cc1cccc(F)c1)[C@H](O)CN[C@H]1CC2(CCC2)Oc2cnc(CC(C)(C)C)cc21 [compound 122] | 23.1 | 7.54 | –
CC(=O)N[C@@H](Cc1ccc2c(c1)OCO2)[C@H](O)CN[C@H]1CC2(CCC2)Oc2c1cc(CC(C)(C)C)nc2Cl [compound 124] | 114 | 28.6 | –
CNc1nc(CC(C)(C)C)cc2c1OC1(CCC1)C[C@@H]2NC[C@@H](O)[C@H](Cc1ccc2c(c1)OCO2)NC(C)=O [compound 126] | 9.1 | 48.4 | –

More lines, in order of falling IC50 [2], values ahead:

IC50 [1, 3] [nM] | IC50 [2] [nM] | IC50 ([1]; HEK cells) [nM] | Structure (SMILES)
3810 | 3720 | – | COCC(=O)N[C@@H](Cc1ccc(F)cc1)[C@H](O)CN[C@H]1CC2(CCC2)Oc2ccc(CC(C)(C)C)nc21 [compound 123, N-((1S,2R)-3-(((4′S)-6′-(2,2-dimethylpropyl)-3′,4′-dihydrospiro[cyclobutane-1,2′-pyrano[3,2-b]pyridin]-4′-yl)amino)-1-((4-fluorophenyl)methyl)-2-hydroxypropyl)-2-(methyloxy)acetamide]
82.8 | 117 | – | COCC(=O)N[C@@H](Cc1ccc2c(c1)OCO2)[C@H](O)CN[C@H]1CC2(CCC2)Oc2ncc(CC(C)(C)C#N)cc21 [compound 87]
319 | 72.3 | – | CC(=O)N[C@@H](Cc1cccc(F)c1C)[C@H](O)CN[C@H]1CC2(CCC2)Oc2ncc(CC(C)(C)C)cc21 [compound 109]
834 | 66.9 | – | CC(C)(C)Cc1cnc2c(c1)[C@@H](NC[C@@H](O)[C@H](Cc1cccc(F)c1)NC(=O)C(C)(Cl)Cl)CC1(CCC1)O2 [compound 106]
13.3 | 57 | – | CNc1nc(CC(C)(C)C)cc2c1OC1(CCC1)C[C@@H]2NC[C@@H](O)[C@H](Cc1ccc2c(c1)OCO2)NC(=O)COC [compound 125]
16 | 48.5 | – | CC(=O)N[C@@H](Cc1ccc2c(c1)OCO2)[C@H](O)CN[C@H]1CC2(CCC2)Oc2ncc(CC(C)(C)C#N)cc21 [compound 88]
497 | 26.5 | – | COCC(=O)N[C@@H](Cc1ccccc1)[C@H](O)CN[C@H]1CC2(CCC2)Oc2c1cc(CC(C)(C)C)nc2N(C)C [compound 113]
102 | 22.1 | – | COCC(=O)N[C@@H](Cc1ccccc1)[C@H](O)CN[C@H]1CC2(CCC2)Oc2cnc(CC(C)(C)C)cc21 [compound 121]
125 | 12.3 | – | COc1cc(C[C@H](NC(=O)C(F)(F)F)[C@H](O)CN[C@H]2CC3(CCC3)Oc3ncc(CC(C)(C)C)cc32)ccc1F [compound 80]
74.7 | 10.3 | – | CC(=O)N[C@@H](Cc1cc(F)cc(F)c1)[C@H](O)CN[C@H]1CC2(CCCC2)C(=O)c2ccc(CC(C)(C)C)cc21 [compound 90]
28 | 9.11 | – | CC(=O)N[C@@H](Cc1ccc(F)cc1)[C@H](O)CN[C@H]1C[C@]2(CC[C@H]2O)Oc2ncc(CC(C)(C)C)cc21 [compound 118]
– | 5.3 | 10.6 | COC(C)C(=O)NC(Cc1cc(F)cc(F)c1)C(O)CNC1CC2(CCC2)Oc2ncc(CC(C)(C)C)cc21 [compound 102, (R)—N-((2S,3R)-1-(3,5-difluorophenyl)-3-hydroxy-4-((S)-6-neopentyl-3,4-dihydrospiro[cyclobutane-1,2H-pyrano[2,3-b]pyridin-4-ylamino)butan-2-yl)-2-methoxypropanamide]
22.4 | 5.07 | – | CC(C)(C)Cc1cnc2c(c1)[C@@H](NC[C@@H](O)[C@H](Cc1cccc(F)c1)NC(=O)CCl)CC1(CCC1)O2 [compound 107]
79.2 | 4.95 | – | CC(C)(C)Cc1cnc2c(c1)[C@@H](NC[C@@H](O)[C@H](Cc1cc(F)cc(F)c1)NC(=O)OCc1cncs1)CC1(CCC1)O2 [compound 93]
29.5 | 4.06 | – | CC(C)(C)Cc1cnc2c(c1)[C@@H](NC[C@@H](O)[C@H](Cc1cccc(F)c1)NC(=O)C(Cl)Cl)CC1(CCC1)O2 [compound 105]
– | 3.69 | 18.8 | CC(C)(C)Cc1cnc2c(c1)[C@@H](NC[C@@H](O)[C@H](Cc1cc(F)cc(F)c1)NC(=O)CCl)CC1(CCC1)O2 [compound 104]
16.7 | 0.43 | – | CC(C)(C)Cc1cnc2c(c1)[C@@H](NC[C@@H](O)[C@H](Cc1cc(F)cc(F)c1)NC(=O)C(Cl)Cl)CC1(CCC1)O2 [compound 95]
43.2 | 0.23 | – | CC(C)(C)Cc1cnc2c(c1)[C@@H](NC[C@@H](O)[C@H](Cc1cc(F)cc(F)c1)NC(=O)C(F)(F)Cl)CC1(CCC1)O2 [compound 96]
